Blank lines part the entries; values can stand above or below the compound they belong to.
Columns and labels:
[1] = system: MultiFate-2.3 cells; experiment: Flow cytometry analysis of MultiFate-2.3 state-switching; assay type: cell-based, Chinese hamster
Source text: FIG. 21A-FIG. 21C depict non-limiting exemplary data related to raw flow cytometry analysis of MultiFate-2.3 state-switching. Each plot represents one of three biological replicates at the indicated time point (cf. FIG. 4B). Initial A-only, B-only and A+B cells (rows) were sorted under the media conditions indicated on the top. Each 2-dimensional flow cytometry plot was divided at mCherry=104 and mCitrine=104 into four quadrants, representing four states. For each plot, the percentage of cells in each of the four states is labeled on the corresponding corner. Timelines above each set of plots represent the time and indicated inducer conditions. Note that since the response elements for 4-OHT or Dox are adjacent to the transcription factor homodimer binding sites (Table 2), the addition of 4-OHT or Dox increases A or B expression up to, but not substantially beyond, the level produced by transcription factor self-activation. […] Additional Dox activation further increased the B expression only by another 1.4 fold (Day 6 versus Day 18).
Finally, it was asked to what extent cells could be deliberately switched from one state to another through transient perturbations. MultiFate-2.3, in which the A and B genes can be independently activated by 4-hydroxy-tamoxifen (4-OHT) and Dox, respectively, was used to address this question. In this cell-line, the response elements for the inducers are adjacent to the homodimer binding sites. Therefore, the addition of inducers increases A or B expression up to, but not substantially beyond, the level produced by self-activation (FIG. 2C and FIG. 21A-FIG. 21C). In the bistable regime, transient induction of either transcription factor switched cells into the corresponding state, where they remained in the absence of further induction (FIG. 8A, FIG. 4B, left, and FIG. 21A). […]
For flow cytometry experiments characterizing state stability (FIG. 3C and FIG. 5B) and state-switching dynamics (FIG. 4A-FIG. 4B), cells from each state were sorted into media containing corresponding inducers. […] The remaining 96% cells were suspended in the flow cytometry buffer and analyzed by flow cytometry. […]
To characterize long-term state stability of MultiFate cells in different media conditions (FIG. 3A-FIG. 5D), 4% of cells were trypsinized and transferred into fresh media with the same condition every three days. The remaining cells were resuspended in flow cytometry buffer and analyzed by a flow cytometer. The resulting two-dimensional (or three-dimensional for MultiFate-3) fluorescence intensity plots were then divided into four quadrants (or eight octants) by an empirical threshold in each of the two (or three) fluorescence channels. […]

[2] = system: reporter containing 18 bp homodimer binding sites driving the expression of Citrine; experiment: Transient co-transfection Citrine reporter assay of ZF transcription factors; assay type: cell-based, Chinese hamster
Source text: To engineer ZF transcription factors, the ErbB2 ZF DNA-binding domain was fused to a GCN4 homodimerization domain and a VP48 transcriptional activation domain to create the synthetic transcription factor, termed ZF-GCN4-AD (FIG. 2A). A transcription factor (ZF-AD) lacking GCN4 was used as a monomeric control. To assay their transcriptional activity, a reporter was constructed containing 18 bp homodimer binding sites driving the expression of Citrine. Each transcription factor was then co-transfected together with the reporter and an mTagBFP2 co-transfection marker into Chinese hamster ovary K1 (CHO-K1) cells, and analyzed for Citrine expression by flow cytometry 36 hours later (FIG. 2A and FIG. 9A) (See, “Additional Methods” below). […] Arginine-to-alanine mutations were introduced at key positions in the ZF known to weaken DNA binding, which decreased monomeric activity without reducing homodimer activity (FIG. 2A, red square). […]
All tissue culture experiments were performed with Chinese hamster ovary K1 cells (CHO-K1, ATCC). […] Cells were harvested after 36 hours and cell fluorescence was measured by flow cytometry. […] After another 72 hours, cells were harvested and analyzed by flow cytometry. […] The inhibition strength was quantified as the reduction of self-activation cell fractions. […]

[3] = system: self-activation construct in Tet3G-expressing CHO-K1 cells; experiment: ZF transcription factor self-activation assay (normalized mCitrine+ fraction); assay type: cell-based, Chinese hamster; conditions: 24 hours Dox, then Dox withdrawn; 72 hours in AP1903 and/or TMP
Source text: To validate this capability, a self-activation construct was designed (FIG. 2C), in which a transcription factor with a FKBP dimerization domain is expressed from a promoter containing its own 18 bp homodimer binding sites (Table 2). This construct allowed independent Dox-inducible activation through upstream Tet3G (Takara Bio) binding sites. […] Finally, a destabilized mCitrine was incorporated for dynamic readout of construct expression. This construct was integrated into Tet3G-expressing CHO-K1 cells, generating a stable polyclonal population for further analysis (Table 3) (See, “Additional Methods” below).
For experiments characterizing ZF transcription factor self-activation (FIG. 2C and FIG. 10A), each self-activation construct was stably integrated (Table 2) into polyclonal Tet3G-expressing CHO-K1 cells via PiggyBac (Systems Biosciences) to make a polyclonal cell line (Table 3). […] After another 72 hours, cells were harvested and analyzed by flow cytometry.
Each self-activation construct (Table 2, construct MF63-MF69) was stably integrated into Tet3G-expressing CHO-K1 cells. […] After another 72 hours, cells were harvested and analyzed by flow cytometry. […]

[4] = system: monoclonal self-activation stable lines (42ZFR2AR39AR67A DNA-binding domain); experiment: Inhibition of self-activation by competitive dimerization; assay type: cell-based, Chinese hamster; conditions: 100 nM AP1903 and 10 μM TMP
Source text: To test this, monoclonal cell lines with the self-activating circuits were selected, and then constructs expressing proteins were stably integrated with a different ZF DNA-binding domain and a matching or mismatching dimerization domain to generate a polyclonal cell population for each perturbation construct (Table 2 and Table 3) (See, “Additional Methods” below). […] Without being bound by any particular theory, this may be through non-specific mechanisms (FIG. 2D and FIG. 10B-FIG. 10C).
All tissue culture experiments were performed with Chinese hamster ovary K1 cells (CHO-K1, ATCC). […] Cells were harvested after 36 hours and cell fluorescence was measured by flow cytometry. […] After another 72 hours, cells were harvested and analyzed by flow cytometry. […] The inhibition strength was quantified as the reduction of self-activation cell fractions.
To determine whether competitive dimerization inhibits self-activation (FIG. 2D and FIG. 10B-FIG. 10C), plasmids (Table 2, construct MF72-MF80) expressing different transcription factor variants and a co-translational mCherry were stably integrated in these two monoclonal lines. After puromycin selection, cells were transferred into media containing 100 nM AP1903+10 μM TMP to permit self-activation, and measured by flow cytometry after another 72 hours. […]

[5] = molecular target: T1, homodimerization domain (Homo sapiens, UniProt P62942, F37V); experiment: Dissociation constant of homodimerization domains (parameter estimate); assay type: binding; conditions: media containing 100 nM AP1903; reasoned from reporter activation versus GCN4; read-out: apparent dissociation constant Kd of homodimerization
T1 construct: expressed in transfected cells; host or cells: CHO-K1
Protocol: Finally, parameters related to protein dimerization were estimated. In some embodiments, the apparent dissociation constant Kd of FKBP homodimerization domain may depend on AP1903 concentrations. […] Based on this observation, it was reasoned that in media containing 100 nM AP1903, the apparent dissociation constant Kd≤10 nM. An estimate of Kd=10 nM=8000 molecules/cell was used in the model. For monomer association rate kon, an intermediate value in the range of diffusion-limited association rates of kon=4×10^5/(M·s)=1.8×10^−3 cell/(protein·hr) was used. These two values together produce a dimer dissociation rate koff=Kd×kon=[…].

[6] = molecular target: homodimerization domain; conditions: cited from earlier work

T1 sequence (P62942 2-108 F37V): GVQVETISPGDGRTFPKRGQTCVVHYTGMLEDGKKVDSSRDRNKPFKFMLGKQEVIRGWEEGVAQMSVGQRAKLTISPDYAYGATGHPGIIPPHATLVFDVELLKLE

Compound: NLS-FKBP12F36V-BCRZFR39A-VP16-NLS-DHFR [transcription factor A]
increase in A expression by transcription factor self-activation (mCherry median Day 18 / Day 0) ([1]; mean of three replicates): 125 fold

control of ZF transcription factor dimerization/activation by dimerization ligand ([2]; FKBP12F36V (FKBP) homodimerization domain instead of GCN4, BCRZFR39A): dose-dependent control of dimerization
Compound: CC[C@H](C(=O)N1CCCC[C@H]1C(=O)O[C@H](CCc1ccc(OC)c(OC)c1)c1cccc(OCC(=O)NCCNC(=O)COc2cccc([C@@H](CCc3ccc(OC)c(OC)c3)OC(=O)[C@@H]3CCCCN3C(=O)[C@@H](CC)c3cc(OC)c(OC)c(OC)c3)c2)c1)c1cc(OC)c(OC)c(OC)c1 [AP1903]
self-activation after Dox withdrawal (mCitrine distribution) [3]: bimodal distribution of mCitrine fluorescence

Compound: NLS-FKBP12F36V-37ZFR2AR11AR39AR67A-VP16-NLS-DHFR [transcription factor B]
increase in B expression by transcription factor self-activation (Day 18 versus Day 0) [1]: 48 fold

Compound: COc1cc(Cc2cnc(N)nc2N)cc(OC)c1OC [TMP, trimethoprim]
self-activation after Dox withdrawal (mCitrine distribution) [3]: promoted self-activation in a dose-dependent manner

inhibition of self-activation ([4]; FKBP-42ZFR2AR39AR67A-VP48-DHFR self-activation cells): can partially inhibit self-activation | Kd [5]: ≤ 10 nM
Compound: FKBP: FKBP12F36V homodimerization domain (SEQ ID NO: 5)

reporter activation by ZF transcription factor ([2]; ErbB2 ZF, VP48 activation domain, wild-type (WT) ZF, flow cytometry 36 hours after transfection): strongly activated the reporter
Compound: ZF-GCN4-AD: ErbB2 ZF DNA-binding domain fused to GCN4 homodimerization domain and VP48 activation domain

Compound: C[C@H]1c2cccc(O)c2C(=O)C2=C(O)[C@]3(O)C(=O)C(C(N)=O)=C(O)[C@@H](N(C)C)[C@@H]3[C@@H](O)[C@@H]21 [Dox]
additional increase in B expression by inducer compared with self-activation (Day 6 versus Day 18) ([1]; Dox 500 ng/ml): 1.4 fold

Compound: 4-hydroxy-tamoxifen [4-OHT]
additional increase in A expression by inducer compared with self-activation (Day 6 versus Day 18) ([1]; 4-OHT 25 nM): 2.8 fold

inhibition of self-activation ([4]; 42ZFR2AR39AR67A-GCN4-VP48-DHFR self-activation cells): did not have inhibitory effects
Compound: GCN4: GCN4 homodimerization domain
Kd [6]: 10 to 20 nM

From patent US20220177911A1, “SYNTHETIC CIRCUIT FOR CELLULAR MULTISTABILITY” (California Institute of Technology, priority 2020, published 2022)
